Test results as given in patent US20230382920A1, “SHMT Inhibitors” (The Trustees of Princeton University, priority 2020, published 2023).
Read-outs that look alike come from different tables or passages of the source.

Assay: Pharmacokinetics study of KDG-0271 in male CD1 mice (Example 3)
Assay type: in vivo
Details: for F: bioavailability vs 1 mg/kg IV; for MRT inf: read-out: MRTInf_obs
Method: A standard PK study of KDG-0271 was performed in male CD1 mice dosed with a single oral or intraperitoneal dose of KDG-0271. The parameters of the PK study are described in Table 18. Dosing solutions were freshly made prior to use, and were in the form of a suspension. […] For IV and IP, after collection, plasma samples from the same time point were pooled, and the pooled samples were analyzed by LC/MS/MS.
The desired serial concentrations of working solutions were achieved by diluting stock solution of analyte with 50% acetonitrile in water solution. 5 μL of working solutions (1, 2, 4, 20, 100, 200, 1000, 2000 ng/mL) were added to 10 μL of blank CD1 mouse plasma to achieve calibration standards of […] (0.5, 1, 2, 10, 50, 100, 500, 1000 ng/mL) in a total volume of 15 μL. Four quality control samples at 1 ng/mL, 2 ng/mL, 50 ng/mL and 800 ng/mL for plasma were prepared independently of those used for the calibration curves. These QC samples were prepared on the day of analysis in the same way as calibration standards.
15 μL standards, 15 μL QC samples and 15 μL unknown samples (10 μL plasma with 5 μL blank solution) were added to 200 μL of acetonitrile containing IS mixture for precipitating protein. Then the samples were vortexed for 30 seconds. After centrifugation at 4 degrees Celsius, 4000 rpm for 15 minutes, the supernatant was diluted three times with water. 10 μL of diluted supernatant was injected into the LC/MS/MS system for quantitative analysis.
BLOQ=Below quantifiable limit of 1 ng/mL. PK parameters were estimated by non-compartmental model using WinNonlin 6.1. The PO bioavailability (F %) was calculated as following:
AUClast-PO/AUCINF-PO>80%: F=(AUCINF-PO*DoseIV)/(mean AUCINF-IV*DosePO) AUClast-PO/AUCINF-PO≤80% or AUCINF was not available: F=(AUClast-PO*DoseIV)/(mean AUClast-IV*DosePO).
The IP bioavailability (F %) was calculated as following:
AUClast-IP/AUCINF-IP>80%: F=(AUCINF-IP*DoseIV)/(mean AUCINF-IV*DoseIP) AUClast-IP/AUCINF-IP≤80% or AUCINF was not available: F=(AUClast-IP*DoseIV)/(mean AUClast-IV*DoseIP).

[1] = male, mouse, plasma, CD1 mice, 1 mg/kg IV
[2] = male, mouse, CD1 mice, plasma, 1 mg/kg IV, read-out: Concentration IV_Mean
[3] = mouse, plasma, male CD1 mice, 200 mg/kg IP
[4] = mouse, plasma, male CD1 mice, 200 mg/kg PO
[5] = mouse, male CD1 mice, plasma, 200 mg/kg IP, read-out: Concentration IP_Mean
[6] = mouse, male CD1 mice, plasma, 200 mg/kg PO, read-out: Concentration PO_Mean

AUC_%Extrap_obs (CD1 mice, 1 mg/kg IV): 0.718% | AUClast/D (CD1 mice, 1 mg/kg IV): 99.3 kg·ng·h/mL/mg | Cl_obs (CD1 mice, 1 mg/kg IV): 167 mL/min/kg | Vss_obs (CD1 mice, 1 mg/kg IV): 3.32 L/kg | Concentration IV_Mean (CD1 mice, plasma, 1 mg/kg IV, 8 h): BLOQ | AUC_%Extrap_obs (male CD1 mice, 200 mg/kg IP): 43.6% | AUClast/D (male CD1 mice, 200 mg/kg IP): 40.7 kg·ng·h/mL/mg | F (male CD1 mice, 200 mg/kg IP): 41.0% | AUC_%Extrap_obs (male CD1 mice, 200 mg/kg PO): 1.28% | AUClast/D (male CD1 mice, 200 mg/kg PO): 19.2 kg·ng·h/mL/mg | F (male CD1 mice, 200 mg/kg PO): 19.4% | AUC(0-inf) [1]: 100 ng·h/mL | AUC(0-t) [1]: 99.3 ng·h/mL | C0 [1]: 637 ng/mL | half-life [1]: 0.787 h | MRT inf [1]: 0.332 h | concentration at 0.083 h (male, mouse, CD1 mice, plasma, 1 mg/kg IV, 0.083 h, read-out: Concentration IV_Mean): 301 ng/mL | concentration at 0.25 h [2]: 66.6 ng/mL | concentration at 0.5 h [2]: 24.8 ng/mL | concentration at 1 h [2]: 9.44 ng/mL | concentration at 2 h [2]: 2.87 ng/mL | concentration at 4 h [2]: 0.632 ng/mL | AUC(0-inf) [3]: 14500 ng·h/mL | AUC(0-t) [3]: 8150 ng·h/mL | Cmax [3]: 2160 ng/mL | Tmax [3]: 0.25 h | half-life [3]: 6.85 h | MRT inf [3]: 9.67 h | AUC(0-inf) [4]: 3880 ng·h/mL | AUC(0-t) [4]: 3830 ng·h/mL | Cmax [4]: 1070 ng/mL | Tmax [4]: 1 h | half-life [4]: 1.2 h | MRT inf [4]: 2.37 h | concentration at 0.25 h [5]: 2160 ng/mL | concentration at 0.5 h [5]: 1530 ng/mL | concentration at 1 h [5]: 1390 ng/mL | concentration at 2 h [5]: 1160 ng/mL | concentration at 4 h [5]: 992 ng/mL | concentration at 8 h (mouse, male CD1 mice, plasma, 200 mg/kg IP, 8 h, read-out: Concentration IP_Mean): 638 ng/mL | concentration at 0.25 h [6]: 701 ng/mL | concentration at 0.5 h [6]: 958 ng/mL | concentration at 1 h [6]: 1070 ng/mL | concentration at 2 h [6]: 836 ng/mL | concentration at 4 h [6]: 395 ng/mL | concentration at 8 h (mouse, male CD1 mice, plasma, 200 mg/kg PO, 8 h, read-out: Concentration PO_Mean): 28.6 ng/mL
SMILES: Cc1n[nH]c2c1C(c1cc(C#CC3CN(C(=O)OC(C)(C)C)C3)cc(CO)c1)(C(C)C)C(C#N)=C(N)O2 (centres unmarked) [KDG-0271, tert-butyl 3-[2-(3-[6-amino-5-cyano-4-isopropyl-3-methyl-1H-pyrano[2,3-c]pyrazol-4-yl]-5-(hydroxymethyl)phenyl)ethynyl]azetidine-1-carboxylate]
clinical symptoms (male CD1 mice, single dose 200 mg/kg PO or 200 mg/kg IP, entire experiment): No abnormal clinical symptoms were observed
